Experiment [1] has as its target E. coli γ-GCS (Escherichia coli, UniProt P0A6W9). Particulars: cited from earlier work; for Vmax: unit = 1 μmol product per hour; for Km: substrate Km.
In experiment [2] the target is T1, Human γ-GCS (Homo sapiens, UniProt P48506).
T1 sequence (P48506 1-637): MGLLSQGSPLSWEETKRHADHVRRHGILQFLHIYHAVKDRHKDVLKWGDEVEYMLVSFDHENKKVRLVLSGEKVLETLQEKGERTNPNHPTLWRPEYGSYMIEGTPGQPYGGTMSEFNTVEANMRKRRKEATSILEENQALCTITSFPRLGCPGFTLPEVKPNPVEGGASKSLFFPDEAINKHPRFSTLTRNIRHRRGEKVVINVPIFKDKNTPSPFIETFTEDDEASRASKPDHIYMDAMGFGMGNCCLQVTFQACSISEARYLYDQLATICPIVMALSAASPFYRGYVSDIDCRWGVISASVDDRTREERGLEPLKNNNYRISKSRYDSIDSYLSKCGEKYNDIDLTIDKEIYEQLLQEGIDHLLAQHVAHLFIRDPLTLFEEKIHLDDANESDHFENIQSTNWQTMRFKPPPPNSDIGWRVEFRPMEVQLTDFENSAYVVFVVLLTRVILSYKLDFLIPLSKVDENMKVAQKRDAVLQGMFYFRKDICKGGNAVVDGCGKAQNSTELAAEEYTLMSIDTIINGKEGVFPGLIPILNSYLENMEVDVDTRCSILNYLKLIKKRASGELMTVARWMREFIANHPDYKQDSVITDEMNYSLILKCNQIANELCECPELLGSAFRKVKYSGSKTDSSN
T1 sequence (P48507 1-274 partner): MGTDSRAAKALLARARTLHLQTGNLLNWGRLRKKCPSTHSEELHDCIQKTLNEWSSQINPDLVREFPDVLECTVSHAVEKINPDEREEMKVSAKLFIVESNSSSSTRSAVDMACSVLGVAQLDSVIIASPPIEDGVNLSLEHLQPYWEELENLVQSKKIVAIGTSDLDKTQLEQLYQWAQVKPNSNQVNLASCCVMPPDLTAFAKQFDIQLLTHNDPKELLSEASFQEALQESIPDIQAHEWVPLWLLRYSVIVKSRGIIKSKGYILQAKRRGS
The note with it: cited from earlier work; for Ki: read-out: Ki; for Km: substrate Km; for Vmax: unit = 1 μmol product per hour.

The target in experiment [3] is T2, S. agalactiae γ-GCS-GS (Streptococcus agalactiae serotype V, UniProt Q8DXM9).
T2 sequence (Q8DXM9 1-750): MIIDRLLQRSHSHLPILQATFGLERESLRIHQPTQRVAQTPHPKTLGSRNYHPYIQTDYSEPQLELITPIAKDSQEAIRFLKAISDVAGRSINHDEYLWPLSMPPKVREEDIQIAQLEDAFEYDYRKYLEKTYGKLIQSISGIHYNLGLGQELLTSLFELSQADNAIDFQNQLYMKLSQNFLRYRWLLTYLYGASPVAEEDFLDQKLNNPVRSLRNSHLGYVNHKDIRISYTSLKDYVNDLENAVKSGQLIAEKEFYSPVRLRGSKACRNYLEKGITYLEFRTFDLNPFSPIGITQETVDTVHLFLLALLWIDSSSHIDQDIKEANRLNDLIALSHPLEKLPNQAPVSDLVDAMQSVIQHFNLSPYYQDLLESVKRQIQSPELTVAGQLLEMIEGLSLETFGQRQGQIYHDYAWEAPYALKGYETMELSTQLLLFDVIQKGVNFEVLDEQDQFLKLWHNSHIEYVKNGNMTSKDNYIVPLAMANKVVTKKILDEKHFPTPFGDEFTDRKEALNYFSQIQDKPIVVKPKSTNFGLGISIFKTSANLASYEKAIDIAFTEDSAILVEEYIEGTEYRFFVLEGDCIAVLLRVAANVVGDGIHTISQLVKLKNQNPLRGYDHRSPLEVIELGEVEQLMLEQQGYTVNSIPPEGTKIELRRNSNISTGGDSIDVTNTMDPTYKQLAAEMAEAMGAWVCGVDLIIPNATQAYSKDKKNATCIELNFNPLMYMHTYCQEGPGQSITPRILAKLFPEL
The experiment can be described thus: γ-GCS activity assay based on ADP formation, S. agalactiae γ-GCS-GS. Format: biochemical. The arrangement: corresponded to full-length S. agalactiae γ-GCS-GS with an N-terminal His8-tag; made in house; host or cells: E. coli SG13009 with pQE30-gshAB plus pREP4 or pRARE. The note with it: for Vmax: unit = 1 μmol product per hour. The protocol:
In Table 1, a unit was defined as the amount of enzyme activity required to catalyze the formation of 1 μmol of product per hour. Specific activity was shown as units per mg protein. Activity was determined at 37° C. based on ADP formation in reaction mixtures containing L-glutamate and L-cysteine and using pyruvate kinase and lactate dehydrogenase to couple ADP formation to NADH oxidation, which was monitored at 340 nm.
Exp. Purif. 13, 268-276 (1998).
At set time points ranging from one to 30 minutes, 5 μl aliquots were removed and assayed for residual enzyme activity using the standard γ-GCS assay based on ADP formation.

The target in experiment [4] is T2, S. agalactiae γ-GCS-GS. The experiment can be described thus: GS activity assay based on ADP formation, S. agalactiae γ-GCS-GS. The note with it: GSH concentrations of up to 100 mM. The protocol: Transformed cells were grown, induced, and harvested by centrifugation, and were then broken using a French pressure cell. […] The column was equilibrated with 50 mM Tris HCl buffer, pH 7.4, containing 5 mM L-glutamate, 5 mM MgCl2, and 5 mM β-mercaptoethanol, and the high-speed supernatant was loaded. After washing the column with equilibration buffer to remove proteins lacking a His-tag, the expressed His8-tagged protein was eluted using the same buffer supplemented with 200 mM imidazole. Amount of γ-GCS activity was determined as described in Example 2. […] It was observed that the purified enzyme catalyzed both the γ-GCS and the GS reactions. Since the GS-specific activity was higher than the specific activity for any known GS enzyme, it was apparent that the expressed 85 kDa S. agalactiae protein (rather than a trace impurity), accounted for the observed GS activity. Using the pREP4 auxiliary plasmid instead of the pRARE plasmid gave somewhat lower yields (325 mg total protein vs. 442 mg protein using pRARE) but the specific activities of the γ-GCS activity (870 units/mg) and GS activities (1143 units/mg) were similar.
Results for E. coli GS are from H. Gushima et al. J. Appl. Biochem. 5, 210-218 (1983). Results for rat GS are from J. L. Luo et al. Biochem. Biophys. Res. Commun. 275, 577-581 (2000). Results for human GS are from R. Njalsson et al. Biochem. Biophys. Res. Commun. 289, 80-84 (2001) and R. Njalsson et al. Biochem. J. 349, 275-279 (2000).

Experiment [5] deals with S. mutans γ-GCS-GS (Streptococcus mutans serotype c, UniProt Q8DW15). Description: γ-GCS activity of S. mutans γ-GCS-GS. An excerpt: 3′ and 5′ […] 3′ and introduced unique Bgl II and Hind III sites (underlined), respectively.
Sequence of S. mutans γ-GCS-GS (Q8DW15 whole entry): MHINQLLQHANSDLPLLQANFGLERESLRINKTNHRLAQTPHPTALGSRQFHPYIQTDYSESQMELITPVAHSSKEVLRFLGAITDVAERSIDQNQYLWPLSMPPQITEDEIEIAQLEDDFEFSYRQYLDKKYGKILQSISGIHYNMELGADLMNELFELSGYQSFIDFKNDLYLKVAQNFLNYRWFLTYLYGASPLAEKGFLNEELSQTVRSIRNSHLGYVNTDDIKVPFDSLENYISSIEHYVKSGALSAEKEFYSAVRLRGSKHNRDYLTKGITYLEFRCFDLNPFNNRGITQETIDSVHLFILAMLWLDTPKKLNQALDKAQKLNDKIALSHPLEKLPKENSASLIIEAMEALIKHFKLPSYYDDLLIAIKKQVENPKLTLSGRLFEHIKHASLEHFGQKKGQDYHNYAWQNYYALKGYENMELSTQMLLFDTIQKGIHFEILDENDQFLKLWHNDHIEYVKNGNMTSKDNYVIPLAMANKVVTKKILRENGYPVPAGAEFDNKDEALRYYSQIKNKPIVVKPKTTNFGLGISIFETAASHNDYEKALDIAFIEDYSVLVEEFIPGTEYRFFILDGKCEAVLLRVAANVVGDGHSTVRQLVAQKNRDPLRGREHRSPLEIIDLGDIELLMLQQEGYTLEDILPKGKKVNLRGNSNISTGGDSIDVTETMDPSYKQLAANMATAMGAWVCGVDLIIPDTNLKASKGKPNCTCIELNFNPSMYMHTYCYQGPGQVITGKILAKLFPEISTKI
For experiment [6], the target named is E. faecalis γ-GCS-GS (Enterococcus faecalis, UniProt Q82ZG8). The experiment can be described thus: γ-GCS activity of E. faecalis γ-GCS-GS.
The target of experiment [7] is T3, Human γ-GCSc (Homo sapiens, UniProt P48506).
T3 sequence (P48506 1-637): T1 sequence (P48506 1-637)
Particulars: catalytic subunit only, cited from earlier work; for Km: substrate Km.

Experiment [8] concerns the target E. coli GS (Escherichia coli, UniProt P04425). The note with it: cited from earlier work; for Km: substrate Km.
Experiment [9] has as its target T4, Rat GS (Rattus norvegicus, UniProt P46413).
T4 sequence (P46413 1-474): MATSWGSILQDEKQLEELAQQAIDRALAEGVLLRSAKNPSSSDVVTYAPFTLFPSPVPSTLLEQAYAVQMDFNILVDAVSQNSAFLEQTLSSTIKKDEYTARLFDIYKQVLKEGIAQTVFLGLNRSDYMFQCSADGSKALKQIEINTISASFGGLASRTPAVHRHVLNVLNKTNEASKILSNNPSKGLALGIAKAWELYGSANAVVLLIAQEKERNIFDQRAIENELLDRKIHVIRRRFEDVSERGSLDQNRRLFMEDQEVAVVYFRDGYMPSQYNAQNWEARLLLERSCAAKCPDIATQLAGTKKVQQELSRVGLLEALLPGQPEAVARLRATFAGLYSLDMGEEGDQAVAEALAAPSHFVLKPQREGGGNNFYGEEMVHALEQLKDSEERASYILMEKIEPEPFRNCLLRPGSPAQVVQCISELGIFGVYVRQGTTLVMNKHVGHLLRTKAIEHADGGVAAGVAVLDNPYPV
Particulars: cited from earlier work.

For experiment [10], the target named is T5, Human GS (Homo sapiens, UniProt P48637).
T5 sequence (P48637 1-474): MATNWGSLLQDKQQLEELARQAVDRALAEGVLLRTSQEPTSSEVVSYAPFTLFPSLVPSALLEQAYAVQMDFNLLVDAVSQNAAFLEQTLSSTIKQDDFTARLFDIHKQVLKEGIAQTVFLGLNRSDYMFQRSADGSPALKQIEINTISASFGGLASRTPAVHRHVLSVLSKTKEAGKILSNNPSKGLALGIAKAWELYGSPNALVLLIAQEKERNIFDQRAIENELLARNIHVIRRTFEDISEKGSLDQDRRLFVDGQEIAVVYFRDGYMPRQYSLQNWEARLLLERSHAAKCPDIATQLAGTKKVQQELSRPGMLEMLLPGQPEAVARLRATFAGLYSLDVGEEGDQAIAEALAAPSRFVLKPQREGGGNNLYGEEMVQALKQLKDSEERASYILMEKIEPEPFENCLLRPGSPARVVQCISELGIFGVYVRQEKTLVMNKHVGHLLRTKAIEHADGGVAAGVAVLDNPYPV
The note with it: cited from earlier work.

[11] abbreviates: MSO also pre-incubated with MgATP, absence of L-glutamate.

Where two headings read alike, the source gives them in different places.

This is an account of results in patent US20080194701A1, “Bifunctional Enzyme with Y-Glutamylcysteine Synthetase and Glutathione Synthetase Activity and Uses Thereof” (priority 2004, published 2008).

Sequence of E. coli GS (P04425 whole entry): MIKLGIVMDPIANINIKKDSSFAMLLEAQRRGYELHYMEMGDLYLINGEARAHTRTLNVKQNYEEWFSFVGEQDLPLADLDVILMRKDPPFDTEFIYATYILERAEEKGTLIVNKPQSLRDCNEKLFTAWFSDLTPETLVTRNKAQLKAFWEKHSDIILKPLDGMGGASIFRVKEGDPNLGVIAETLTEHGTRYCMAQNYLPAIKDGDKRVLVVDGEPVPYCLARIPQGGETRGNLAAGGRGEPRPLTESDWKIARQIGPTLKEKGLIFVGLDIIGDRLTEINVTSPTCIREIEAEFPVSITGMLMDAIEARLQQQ
Sequence of E. coli γ-GCS (P0A6W9 whole entry): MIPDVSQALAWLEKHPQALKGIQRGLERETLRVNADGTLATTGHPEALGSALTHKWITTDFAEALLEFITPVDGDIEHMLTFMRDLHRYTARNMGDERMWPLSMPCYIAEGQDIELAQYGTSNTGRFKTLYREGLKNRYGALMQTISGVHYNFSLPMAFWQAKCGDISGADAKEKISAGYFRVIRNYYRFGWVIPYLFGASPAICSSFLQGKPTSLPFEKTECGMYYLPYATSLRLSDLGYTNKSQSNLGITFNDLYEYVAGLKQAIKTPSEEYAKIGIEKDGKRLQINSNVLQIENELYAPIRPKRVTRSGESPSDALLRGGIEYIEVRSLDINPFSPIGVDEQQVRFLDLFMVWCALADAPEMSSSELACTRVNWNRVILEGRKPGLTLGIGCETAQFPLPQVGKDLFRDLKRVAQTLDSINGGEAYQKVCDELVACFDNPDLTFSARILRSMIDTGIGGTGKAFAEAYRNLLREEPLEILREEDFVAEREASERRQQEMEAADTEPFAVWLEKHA

For `NCCSSCCN` [Cystamine, reference compound], the Ki result in [1] is “no inhibition”; in [2], 2 mM; in [3] (inhibition of γ-GCS activity, initial reversible binding), “no inhibition”. The “inhibition of γ-GCS activity” value in experiment [3] is listed as “no reproducibly measurable inhibition”.
As for `N[C@@H](CCC(=O)N[C@@H](CS)C(=O)NCC(=O)O)C(=O)O` [GSH, L-γ-glutamyl-L-cysteinylglycine, reference compound], in experiment [4], the “inhibition of GS activity” value was “does not significantly inhibit”. For the same molecule, the inhibitory constant (Ki) in experiment [5] is 67 ± 0.8 mM; in [1] (read-out: Ki), 2.7 mM; in experiment [2], 5.8 mM; in [6], 25.1 ± 0.8 mM; in experiment [3], “no inhibition”.
Consider `CS(=N)(=O)CC[C@H](N)C(=O)O` (mixture of isomers) [L-Methionine-S,R-sulfoximine], for which the Ki in [3] is more than 100 mM. Further, the “inhibition of the γ-GCS activity (in words)” value (shortened to “inhibition … (in words)”) in experiment [3] (setting [11]) is “no significant inhibition”.
As to `N[C@@H](CS)C(=O)O` [L-cysteine], the Vmax in [1] is reported as 3590 ± 200 units/mg; in experiment [2] it was approximately 1500 units/mg; in experiment [7], approximately 1250 units/mg. Moreover, the Km in experiment [2] is 100 ± 20 µM; in [7], 130 ± 10 µM.
Consider `NCC(=O)O` [glycine], for which the Vmax in [8] is 650 units/mg; in experiment [9], 678 units/mg; in experiment [10] it was 361 ± 84 units/mg. Besides, the values for the Km in experiment [8], in experiment [9] (substrate Km) and in [10] (substrate Km) were 2000 µM, 913 µM and 1300 ± 300 µM, respectively.
In the case of `N[C@@H](CCC(=O)N[C@@H](CS)C(=O)O)C(=O)O` [L-γ-glutamyl-L-cysteine], in experiment [8], the Vmax is listed as 650 units/mg and the Michaelis constant (Km) was 2600 µM.
`CP(=O)(O)CCC(N)C(=O)O.N` (stereo not shown) [glufosinate (ammonium salt), glufosinate ammonium]: in [3] (setting [11]), the “inhibition … (in words)” value was “moderately good inhibitors”. Also, in experiment [3] (inhibition of γ-GCS activity, initial reversible binding, read-out: Ki), the Ki worked out at 29 mM.
For the molecule `NC(CCP(=O)(O)O)C(=O)O` (racemic) [D,L-2-amino-4-phosphonobutyric acid], the Ki in [3] came to 13 mM. Besides, the “inhibition … (in words)” value in experiment [3] (setting [11]) is “moderately good inhibitors”.
In the case of `N[C@@H](CCC(=O)O)C(=O)O` [L-glutamate], the Michaelis-Menten constant (Km) in experiment [5] (substrate Km, γ-GCS activity) is 17000 ± 1000 µM; in [1], 1900 ± 200 µM; in experiment [2], 1900 ± 200 µM; in [7], 3200 ± 100 µM; in experiment [6] (substrate Km, γ-GCS activity), 79000 ± 14000 µM; in experiment [3] it was 23000 ± 2000 µM. Further, the Vmax is 3170 ± 125 units/mg in experiment [1], approximately 1500 units/mg in [2], approximately 1250 units/mg in experiment [7] and 1341 ± 145 units/mg in experiment [3] (γ-GCS activity).
Turning to `CC[C@H](N)C(=O)O` [L-α-aminobutyrate], the Km was 3900 ± 400 µM in experiment [1]; 1300 µM in experiment [2]; 1700 µM in [7]; 8300 ± 1000 µM in experiment [3] (substrate Km, γ-GCS activity). Further, the Vmax was 2970 ± 120 units/mg in experiment [1], approximately 1500 units/mg in experiment [2], approximately 1250 units/mg in experiment [7] and 1148 ± 73 units/mg in [3] (γ-GCS activity).
Consider `NC(CCCP(=O)(O)O)C(=O)O` (racemic) [D,L-2-amino-5-phosphonovaleric acid], for which, in [3], the Ki was more than 100 mM and the “inhibition … (in words)” value is recorded as “not effective”.
